The results in this text go back to patent publication US20150359731A1, “PHYLLANTHUS ACIDUS EXTRACTS AND METHODS OF USE” (AVON PRODUCTS, INC, priority 2013, published 2015).

The experiment concerns dorsal forearm skin of healthy female Caucasian subjects with mild to moderate photo damage. Put plainly: In vivo biopsy, histology of treated dorsal forearm skin. On the set-up: species or system human. As to conditions: 3 weeks semi-occlusion patch, 2 mg/cm^2, extract 0.33%, retinol 0.05% active. Here is the method: Healthy female Caucasian subjects aged 30-65, with skin type II or III and mild to moderate photo damage, were treated on the dorsal forearm for 3 weeks (3 consecutive rounds of 5×24 hour) under semi-occlusion patches. Test articles including active ingredients, vehicle controls, and retinol were applied in a randomized allocation on 6 sites on each forearm. The application dose was 2 mg/cm^2. After 3 week treatment, a 2 mm punch biopsy was obtained from each treatment site and fixed in 10% buffered formalin. Tissue samples then embedded in paraffin, sectioned (5 μm thickness), and stained for skin markers after re-hydration. […] Retinol at a active concentration of 0.05% was used a positive control. Retinol use at a 0.05% active concentration in the semi-occlusion patch vehicle formulation yielded a visual score of approximately 0.56 out of a 4 point scale in HE staining (measuring hematoxylin and eosin staining, an indication of viable epidermal thickness and health) with 63.6% of the subjects showing an improvement; a visual score of 0.6 out of a 4 point scale in M-TC staining (Masson's trichrome staining, assessing total mature fiber-forming collagen in the dermis—mainly Collagen I, […] and Collagen V) with 51.6% of the subjects showing an improvement; a visual score of 0.52 out of a 4 point scale for pro-Col (measuring new synthesis of Collagen I by skin fibroblasts in the dermis) with 51.6% of the subjects showing an improvement; and a visual score of 0.57 out of a 4 point scale for HA (measuring level of hyaluronic acid in both dermis and epidermis) with 50% of the subjects showing an improvement.

Consider `CC1=C(/C=C/C(C)=C/C=C/C(C)=C/CO)C(C)(C)CCC1` [Retinol], for which the “subjects showing an improvement, HA” value is listed as 50%; the “subjects showing an improvement, HE staining” value is 63.6%; the “subjects showing an improvement, M-TC staining” value is 51.6%; the “subjects showing an improvement, pro-Col” value stood at 51.6%. For the setting “out of a 4 point scale”, the “visual score for HA (level of hyaluronic acid in both dermis and epidermis)” value is recorded as 0.57; the “visual score for pro-Col (new synthesis of Collagen I by skin fibroblasts in the dermis)” value was 0.52; the “visual score in HE staining (viable epidermal thickness and health)” value is “approximately 0.56”; the “visual score in M-TC staining (total mature fiber-forming collagen in the dermis)” value turned out to be 0.6.
